Like-named read-outs stand apart in the source and are kept apart here.
What was measured:
Type in all cases: biochemical
PI3Kδ = target: T1, PI3Kδ (Homo sapiens, UniProt O00329); experiment: PI3K kinases inhibition in vitro (ADP-Glo), PI3Kδ
T1 construct: purchased Merck Millipore
Method: (§1) Tested compounds were dissolved in 100% DMSO, and thus obtained solutions were serially diluted in 1× reaction buffer. Recombinant kinase was diluted in a reaction mixture comprising 5× reaction buffer, substrate (1 mM sodium diacetate 4,5-bisphosphate phosphatydylinositol (PIP2) solution in 40 mM Tris buffer), and water. To the wells in a 96-wells plate, 5 μl of compounds solutions and 15 μl of the kinase solution in the reaction mixture were added. To initiate interaction of tested chemical compounds with the enzyme, the plate was incubated for 10 minutes at suitable temperature in a plate thermostat with orbital shaking at 600 rpm. Negative control wells contained all above reagents except tested compound and kinase, and positive control wells contained all above reagents except tested compounds. Enzymatic reaction was initiated by adding 5 μl of 150 μM ATP solution, subsequently the plate was incubated for 1 hour at 25° C. or 30° C. (depending on PI3K isoform tested) in plate thermostat with orbital shaking of the plate contents at 600 rpm. Reaction conditions are presented below in Table 12.
(§2) Detection of ADP formed in the enzymatic reaction was then performed using ADP-Glo Kinase Assay (Promega). To the wells of a 96-well plate 25 μl of ADP-Glo Reagent were added, and the plate was incubated for 40 minutes at 25° C. in a plate thermostat with orbital shaking at 600 rpm. Then to the wells of 96-well plate 50 μl of Kinase Detection Reagent were added and the plate was incubated for 40 minutes at 25° C. in a plate thermostat with orbital shaking at 600 rpm. After incubation time, luminescence intensity in a well was measured by Victor Light luminometer (Perkin Elmer, Inc.).
(§3) IC50 values were determined on the basis of luminescence intensity measurements in wells containing tested compounds at different concentrations and in control wells. These values were calculated with Graph Pad 5.03 software by fitting the curve using non-linear regression. Each compound was tested at least in quadruplicates (4 wells) on two 96-well plates using at least 4 wells of each of the controls.

PI3Kγ = target: T2, PI3Kγ (Homo sapiens, UniProt P48736); experiment: PI3K kinases inhibition in vitro (ADP-Glo), PI3Kγ
T2 construct: purchased Merck Millipore
T2 sequence (P48736 whole entry): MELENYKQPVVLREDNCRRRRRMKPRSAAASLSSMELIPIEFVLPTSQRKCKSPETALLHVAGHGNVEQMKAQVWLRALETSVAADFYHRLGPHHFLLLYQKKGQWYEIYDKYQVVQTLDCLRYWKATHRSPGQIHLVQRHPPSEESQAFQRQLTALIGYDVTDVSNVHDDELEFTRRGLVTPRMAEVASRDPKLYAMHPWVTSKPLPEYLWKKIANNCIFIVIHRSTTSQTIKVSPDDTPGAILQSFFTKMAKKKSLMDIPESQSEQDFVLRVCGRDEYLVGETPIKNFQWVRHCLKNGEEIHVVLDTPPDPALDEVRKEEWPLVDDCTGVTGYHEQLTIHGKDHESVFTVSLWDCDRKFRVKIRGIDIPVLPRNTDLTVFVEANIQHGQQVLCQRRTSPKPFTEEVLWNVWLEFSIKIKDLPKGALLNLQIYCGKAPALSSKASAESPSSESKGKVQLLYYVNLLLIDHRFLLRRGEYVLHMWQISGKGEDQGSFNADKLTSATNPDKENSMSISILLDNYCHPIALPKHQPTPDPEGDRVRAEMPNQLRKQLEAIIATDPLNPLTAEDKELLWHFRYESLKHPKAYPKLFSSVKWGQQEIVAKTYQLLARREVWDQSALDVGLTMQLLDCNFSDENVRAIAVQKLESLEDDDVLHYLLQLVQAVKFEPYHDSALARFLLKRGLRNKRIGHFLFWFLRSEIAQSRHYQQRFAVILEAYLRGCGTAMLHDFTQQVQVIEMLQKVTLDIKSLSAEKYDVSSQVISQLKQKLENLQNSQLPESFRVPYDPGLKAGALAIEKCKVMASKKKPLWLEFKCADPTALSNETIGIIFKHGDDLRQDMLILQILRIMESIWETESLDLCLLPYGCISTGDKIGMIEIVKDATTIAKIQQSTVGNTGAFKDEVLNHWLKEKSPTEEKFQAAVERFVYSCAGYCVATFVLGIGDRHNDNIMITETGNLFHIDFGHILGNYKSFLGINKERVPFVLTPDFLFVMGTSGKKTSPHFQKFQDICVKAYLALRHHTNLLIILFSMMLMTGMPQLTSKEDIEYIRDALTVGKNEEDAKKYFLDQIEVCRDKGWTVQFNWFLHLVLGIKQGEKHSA
Method: as §1, §2, §3

PI3Kβ = target: T3, PI3Kβ (Homo sapiens, UniProt P42338); experiment: PI3K kinases inhibition in vitro (ADP-Glo), PI3Kβ
T3 construct: purchased Merck Millipore
T3 sequence (P42338 whole entry): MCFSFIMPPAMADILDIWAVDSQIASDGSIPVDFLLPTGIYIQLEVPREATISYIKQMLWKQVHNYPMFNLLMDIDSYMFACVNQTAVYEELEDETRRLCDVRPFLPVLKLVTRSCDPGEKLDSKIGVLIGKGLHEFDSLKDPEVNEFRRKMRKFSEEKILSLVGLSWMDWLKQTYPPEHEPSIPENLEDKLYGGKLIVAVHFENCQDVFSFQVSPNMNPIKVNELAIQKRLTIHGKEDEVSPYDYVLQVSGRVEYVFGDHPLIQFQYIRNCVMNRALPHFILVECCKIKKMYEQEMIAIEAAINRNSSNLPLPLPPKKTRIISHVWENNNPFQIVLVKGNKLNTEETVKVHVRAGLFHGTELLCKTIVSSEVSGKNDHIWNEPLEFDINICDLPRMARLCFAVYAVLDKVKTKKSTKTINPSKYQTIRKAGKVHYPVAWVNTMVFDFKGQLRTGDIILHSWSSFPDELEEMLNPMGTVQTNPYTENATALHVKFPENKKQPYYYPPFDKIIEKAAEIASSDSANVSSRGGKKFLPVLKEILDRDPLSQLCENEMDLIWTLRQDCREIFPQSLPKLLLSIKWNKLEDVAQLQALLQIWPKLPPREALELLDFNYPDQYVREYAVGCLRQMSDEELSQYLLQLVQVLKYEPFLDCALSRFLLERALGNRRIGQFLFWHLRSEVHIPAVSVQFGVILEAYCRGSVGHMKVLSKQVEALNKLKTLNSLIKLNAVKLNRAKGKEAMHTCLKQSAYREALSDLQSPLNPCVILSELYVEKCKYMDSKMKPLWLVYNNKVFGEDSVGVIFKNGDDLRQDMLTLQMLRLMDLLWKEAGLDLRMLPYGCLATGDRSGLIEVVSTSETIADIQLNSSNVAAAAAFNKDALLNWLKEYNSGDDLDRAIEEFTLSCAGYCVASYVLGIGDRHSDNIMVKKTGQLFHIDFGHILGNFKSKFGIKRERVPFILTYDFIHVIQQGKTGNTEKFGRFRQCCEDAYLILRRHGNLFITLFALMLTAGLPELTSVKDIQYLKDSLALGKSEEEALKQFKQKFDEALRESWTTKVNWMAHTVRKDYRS
T3 sequence (P27986 whole entry, further chain): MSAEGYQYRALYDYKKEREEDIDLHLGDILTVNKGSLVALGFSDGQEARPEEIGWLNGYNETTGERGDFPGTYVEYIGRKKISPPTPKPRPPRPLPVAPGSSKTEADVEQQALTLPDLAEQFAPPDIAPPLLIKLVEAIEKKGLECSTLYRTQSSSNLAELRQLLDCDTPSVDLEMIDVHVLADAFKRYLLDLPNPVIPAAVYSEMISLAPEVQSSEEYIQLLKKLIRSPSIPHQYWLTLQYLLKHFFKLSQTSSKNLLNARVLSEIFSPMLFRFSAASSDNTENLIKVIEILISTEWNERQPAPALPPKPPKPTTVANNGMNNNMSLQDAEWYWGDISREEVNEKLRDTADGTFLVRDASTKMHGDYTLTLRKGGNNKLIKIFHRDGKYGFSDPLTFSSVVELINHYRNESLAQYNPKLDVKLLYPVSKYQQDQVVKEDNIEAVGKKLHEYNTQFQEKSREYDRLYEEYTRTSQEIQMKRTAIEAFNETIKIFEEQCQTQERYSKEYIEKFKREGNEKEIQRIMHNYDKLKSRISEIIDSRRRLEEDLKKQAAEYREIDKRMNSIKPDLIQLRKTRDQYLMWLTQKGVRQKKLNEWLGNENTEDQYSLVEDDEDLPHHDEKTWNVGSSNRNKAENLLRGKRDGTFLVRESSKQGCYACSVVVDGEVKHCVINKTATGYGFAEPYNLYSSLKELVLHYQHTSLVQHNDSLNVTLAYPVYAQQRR
Method: as §1, §2, §3

PI3Kα = target: T4, PI3Kα (Homo sapiens, UniProt P42336); experiment: PI3K kinases inhibition in vitro (ADP-Glo), PI3Kα
T4 construct: purchased Carna Biosciences
T4 sequence (P42336 whole entry): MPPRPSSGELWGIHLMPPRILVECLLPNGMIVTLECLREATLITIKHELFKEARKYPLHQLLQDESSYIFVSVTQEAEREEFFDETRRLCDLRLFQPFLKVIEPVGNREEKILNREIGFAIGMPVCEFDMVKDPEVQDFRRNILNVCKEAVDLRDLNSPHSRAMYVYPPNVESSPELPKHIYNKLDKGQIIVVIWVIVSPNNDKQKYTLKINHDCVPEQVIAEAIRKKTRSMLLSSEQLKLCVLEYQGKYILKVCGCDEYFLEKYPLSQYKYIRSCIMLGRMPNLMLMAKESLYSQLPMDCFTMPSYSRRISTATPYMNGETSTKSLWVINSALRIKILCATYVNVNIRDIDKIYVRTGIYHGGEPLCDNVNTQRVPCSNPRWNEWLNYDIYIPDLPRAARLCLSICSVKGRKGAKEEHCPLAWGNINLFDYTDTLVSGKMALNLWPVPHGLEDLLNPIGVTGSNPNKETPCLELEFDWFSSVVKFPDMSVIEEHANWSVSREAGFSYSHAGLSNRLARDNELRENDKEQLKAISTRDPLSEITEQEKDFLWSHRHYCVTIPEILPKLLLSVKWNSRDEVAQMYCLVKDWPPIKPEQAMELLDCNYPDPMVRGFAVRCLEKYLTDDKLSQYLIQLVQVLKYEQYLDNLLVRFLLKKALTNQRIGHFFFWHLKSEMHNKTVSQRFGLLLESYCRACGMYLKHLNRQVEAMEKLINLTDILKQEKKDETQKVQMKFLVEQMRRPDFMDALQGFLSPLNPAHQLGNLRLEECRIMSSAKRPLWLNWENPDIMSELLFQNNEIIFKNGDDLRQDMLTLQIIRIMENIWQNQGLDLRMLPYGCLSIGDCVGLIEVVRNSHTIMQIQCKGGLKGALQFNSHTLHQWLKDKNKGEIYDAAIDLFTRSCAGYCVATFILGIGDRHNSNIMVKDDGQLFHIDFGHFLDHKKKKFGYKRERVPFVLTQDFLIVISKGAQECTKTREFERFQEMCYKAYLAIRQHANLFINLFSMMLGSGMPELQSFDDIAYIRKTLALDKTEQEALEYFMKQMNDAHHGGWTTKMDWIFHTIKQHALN
T4 sequence (P27986 whole entry partner): as the sequence (P27986 whole entry, further chain) above
Method: as §1, §2, §3

[1] = averaged, recombinant kinase, 25° C., 1 h, PIP2 30 μM, read-out: PI3Kδ IC50
[2] = averaged, recombinant kinase, 30° C., 1 h, PIP2 50 μM, read-out: PI3Kγ IC50
[3] = averaged, recombinant kinase, 30° C., 1 h, PIP2 50 μM, read-out: PI3Kβ IC50

T1 sequence (O00329 whole entry): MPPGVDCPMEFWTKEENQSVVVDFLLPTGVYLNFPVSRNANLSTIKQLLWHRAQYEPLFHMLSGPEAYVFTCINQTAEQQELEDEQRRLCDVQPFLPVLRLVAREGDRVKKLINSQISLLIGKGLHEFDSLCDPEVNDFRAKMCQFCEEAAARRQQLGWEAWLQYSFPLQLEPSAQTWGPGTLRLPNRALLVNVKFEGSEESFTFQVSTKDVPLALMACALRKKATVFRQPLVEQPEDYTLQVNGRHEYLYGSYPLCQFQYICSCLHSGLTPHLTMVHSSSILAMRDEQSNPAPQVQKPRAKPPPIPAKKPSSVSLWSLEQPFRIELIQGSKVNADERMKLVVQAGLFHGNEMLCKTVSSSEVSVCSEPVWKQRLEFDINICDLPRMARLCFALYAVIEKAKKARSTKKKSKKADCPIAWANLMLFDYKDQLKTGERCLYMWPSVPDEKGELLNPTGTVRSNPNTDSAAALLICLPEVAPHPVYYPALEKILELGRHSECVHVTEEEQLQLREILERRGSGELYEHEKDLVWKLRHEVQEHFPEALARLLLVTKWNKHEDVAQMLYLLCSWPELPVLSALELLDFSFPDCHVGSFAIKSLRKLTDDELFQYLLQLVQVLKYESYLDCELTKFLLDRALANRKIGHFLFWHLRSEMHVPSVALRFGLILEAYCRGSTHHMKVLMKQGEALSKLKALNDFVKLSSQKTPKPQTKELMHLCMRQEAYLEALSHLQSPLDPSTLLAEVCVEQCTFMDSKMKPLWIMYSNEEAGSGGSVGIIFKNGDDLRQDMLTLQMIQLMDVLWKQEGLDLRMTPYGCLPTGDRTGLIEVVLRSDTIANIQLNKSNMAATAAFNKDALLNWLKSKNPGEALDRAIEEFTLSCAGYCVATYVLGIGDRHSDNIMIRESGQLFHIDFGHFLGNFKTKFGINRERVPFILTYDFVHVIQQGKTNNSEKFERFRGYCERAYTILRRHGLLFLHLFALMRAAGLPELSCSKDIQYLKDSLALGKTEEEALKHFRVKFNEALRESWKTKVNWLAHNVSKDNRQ
T1 sequence (P27986 whole entry, further chain): as the sequence (P27986 whole entry, further chain) above

Row | SMILES | IC50 (PI3Kδ; [1]) [nM] | IC50 (PI3Kγ; [2]) [nM] | IC50 (PI3Kβ; [3]) [nM] | IC50 (PI3Kα) [nM] | IC50 (PI3Kδ) [nM] | IC50 (PI3Kγ) [nM] | IC50 (PI3Kβ) [nM]
1 | O=C(C1CC1)N1CCN(Cc2cc3nc(-c4cccc5[nH]ccc45)cc(N4CCOCC4)n3n2)CC1 [Example 1, 2-((4-(cyclopropanecarbonyl)piperazin-1-yl)methyl)-5-(1H-indol-4-yl)-7-(morpholin-4-yl)pyrazolo[1,5-a]pyrimidine] | < 100 | 100 to 1000 | > 1000 | > 1000 | – | – | –
2 | CN(C)C1CCN(Cc2cc3nc(-c4cccc5[nH]ccc45)cc(N4CCOCC4)n3n2)CC1 [Example 5, 2-((4-(dimethylamino)piperidin-1-yl)methyl)-5-(1H-indol-4-yl)-7-(morpholin-4-yl)pyrazolo[1,5-a]-pyrimidine] | – | – | – | > 1000 | < 100 | > 1000 | > 1000
3 | CC(C)(O)C1CCN(Cc2cc3nc(-c4c(F)ccc5[nH]ccc45)cc(N4CCOCC4)n3n2)CC1 [Example 7, 2-((4-(2-hydroxypropan-2-yl)-piperidin-1-yl)methyl)-5-(5-fluoro-1H-indol-4-yl)-7-(morpholin-4-yl)-pyrazolo[1,5-a]pyrimidine] | < 100 | > 1000 | > 1000 | > 1000 | – | – | –
4 | CC(C)(C(N)=O)N1CCN(Cc2cc3nc(-c4cccc5[nH]ccc45)cc(N4CCOCC4)n3n2)CC1 [Example 9, 2-(4-((5-(1H-indol-4-yl)-7-(morpholin-4-yl)pyrazolo[1,5-a]-pyrimidin-2-yl)methyl)piperazin-1-yl)-2-methyl-propionamide] | – | – | – | > 1000 | < 100 | > 1000 | > 1000
5 | CC(C)(C(N)=O)N1CCN(Cc2cc3nc(-c4c(F)ccc5[nH]ccc45)cc(N4CCOCC4)n3n2)CC1 [Example 10, 2-(4-((5-(5-fluoro-1H-indol-4-yl)-7-(morpholin-4-yl)pyrazolo[1,5-a]-pyrimidin-2-yl)methyl)piperazin-1-yl)-2-methyl-propionamide] | < 100 | > 1000 | > 1000 | > 1000 | – | – | –
6 | CN(C)C1CCN(Cc2cc3nc(-c4c(F)ccc5[nH]ccc45)cc(N4CCOCC4)n3n2)CC1 [Example 13, 2-((4-(dimethylamino)piperidin-1-yl)methyl)-5-(5-fluoro-1H-indol-4-yl)-7-(morpholin-4-yl)pyrazolo[1,5-a]pyrimidine] | < 100 | > 1000 | > 1000 | > 1000 | – | – | –
7 | CC(C)(C)N1CCN(Cc2cc3nc(-c4ccc(N)nc4)cc(N4CCOCC4)n3n2)CC1 [Example 16, 5-(2-aminopyridin-5-yl)-2-((4-tert-butylpiperazin-1-yl)methyl)-7-(morpholin-4-yl)pyrazolo[1,5-a]-pyrimidine] | < 100 | > 1000 | > 1000 | > 1000 | – | – | –
8 | c1cc(-c2cc(N3CCOCC3)n3nc(CN4CCN(C5CC5)CC4)cc3n2)c2cc[nH]c2c1 [Example 20, 2-((4-cyclopropyl-piperazin-1-yl)-methyl)-5-(1H-indol-4-yl)-7-(morpholin-4-yl)pyrazolo[1,5-a]-pyrimidine] | – | – | – | > 1000 | < 100 | – | > 1000
9 | CC(C)(O)C1CCN(Cc2cc3nc(-c4cncc5[nH]ccc45)cc(N4CCOCC4)n3n2)CC1 [Example 29, 5-(1H-6-azaindol-4-yl)-2-((4-(2-hydroxypropan-2-yl)piperidin-1-yl)methyl)-7-(morpholin-4-yl)-pyrazolo[1,5-a]pyrimidine] | < 100 | – | > 1000 | > 1000 | – | – | –
10 | CC(C)(C)N1CCN(Cc2cc3nc(-c4ccnc5[nH]ccc45)cc(N4CCOCC4)n3n2)CC1 [Example 32, 5-(1H-7-azaindol-4-yl)-2-((4-tert-butylpiperazin-1-yl)methyl)-7-(morpholin-4-yl)pyrazolo[1,5-a]-pyrimidine] | < 100 | – | > 1000 | > 1000 | – | – | –
